Holding throughout (assay type): cell-based, human
One assay concerns HCT116 cells. In words: Proliferation inhibition, CellTiter-Glo, HCT116. As to conditions: Table D-1, HCT116 (KRAS G13D), 3 days, read-out: Prolif. (proliferation EC50). As to the method:
(§1) All cancer cell lines (A375, A101D, A2058, RKO, HT29 SK-MEL 30, IPC298, HepG2, HCT-116, Lovo, SW620, SW480, NCI-H358, NCI-H2122, Calu-6, NCIH2087, NCIH1755, NCIH1666 and Mewo) were obtained from ATCC and cultured in RPM1-1640 medium (Gibco) supplemented with 5% heat inactivated fetal bovine serum (FBS, Wisent) at 37° C. under 5% CO2. Cells were maintained in T175 flasks (Greiner). They were passaged by removing the culture medium, washing once in 10 mL of room temperature Phosphate Buffered Saline (PBS; Wisent) and incubating at 37° C. with 2 mL of 0.05% Trypsin (Thermo-Fisher). Trypsin was then inactivated by adding complete growth medium and the cells were then replated in a T175 culture dish at the appropriate dilution. All cell lines were routinely tested for mycoplasma contamination. Tissue type and mutational status of each cell line can be found in Table B.
(§2) CellTiter-Glo® viability analysis was conducted on cells plated in 100 μL of complete RPMI-1640 growth medium in 96-well flat-bottomed white opaque plates (Greiner or Croning) at a density indicated in Table E (for each CCL, number of cells plated per well of a 96-well plate to perform the CellTiter-Glo® cell viability assay). The cell density in cells/cm^2 would correspond to cell number divided by the area of one well of a 96-well plate (0.32 cm^2). […]
(§3) After 3 days of incubation, the growth media were removed by aspiration and 60 μL of diluted CellTiter-Glo® reagent (10 μL CellTiter-Glo® reagent+50 μL of PBS) was added to each well. […] Luminescence signals were then acquired on a Synergy Neo2 plate reader (Biotek).
(§4) The effect of each compound dilution on the proliferation of cancer cell lines was expressed in % inhibition and calculated as follows. […]
(§5) The ability of each compound to inhibit proliferation was expressed as a EC50 value obtained by plotting the effect values for each data point of a dilution series and fitting the obtained curves using a log(agonist) versus response—variable slope (four parameters) function using GraphPadPrism (V7.0) or Dotmatics Screening Ultra platform.

For the next assay, the system named is NCIH1755 cells. In words: Proliferation inhibition, CellTiter-Glo, NCIH1755. As to conditions: Table D-2, NCIH1755 (BRAF G469A), 3 days, read-out: Prolif. (proliferation EC50). As to the method:
as §1, §2, §3, §4, §5
In general terms: In ATP-based viability assays light output follows the ATP content of the culture.

The subject of a further assay is HT-29 cells. In words: Proliferation inhibition, CellTiter-Glo, HT-29. The following applies: Table D-1, HT-29 (BRAF V600E), 3 days, read-out: Prolif. (proliferation EC50). As to the method:
as §1, §2, §3, §4, §5

The next assay deals with SK-MEL30 cells. In words: Proliferation inhibition, CellTiter-Glo, SK-MEL30. As to conditions: Table D-1, SK-MEL30 (NRAS-Q61K), 3 days, read-out: Prolif. (proliferation EC50). As to the method: as §1, §2, §3, §4, §5

Where two headings read alike, the source gives them in different places. Some results are limits rather than exact numbers.

Take `Cc1ccc2c(Nc3cccc(Cl)c3F)nccc2c1NC(=O)c1csc2c(N)ncnc12` [Belvarafenib, reference compound]: the EC50 is 300 to 3000 nM with HCT116 cells (Homo sapiens, HCT-116, 72 h); more than 3000 nM in the assay on NCIH1755 cells (Homo sapiens, NCI-H1755, 72 h); less than 300 nM in the assay with HT-29 cells (Homo sapiens, 72 h); less than 300 nM in the assay on SK-MEL30 cells (Homo sapiens, SK-MEL-30, 72 h).

Consider `N#CC1(c2cccc3c2ncn3-c2nc3c(Nc4c(F)ccc(NS(=O)(=O)c5cccc(Cl)c5Cl)c4F)ncnc3s2)CC1` [Example 122], for which the EC50 in the assay with HCT116 cells, in the assay on NCIH1755 cells, in the assay with HT-29 cells and with SK-MEL30 cells was less than 300 nM throughout.

In the case of `Cc1c(F)cccc1S(=O)(=O)Nc1ccc(F)c(Nc2ncnc3sc(-n4cc(C(=O)N5C6CCC5CN(C)C6)c5ccccc54)nc23)c1F` [Example 44], the EC50 in the assay with HCT116 cells, in the assay with NCIH1755 cells, in the assay with HT-29 cells and in the assay with SK-MEL30 cells was less than 300 nM each time.

For the origin of these results see patent US20260137697A1, “THIAZOLO[5,4-D]PYRIMIDINE COMPOUNDS, COMPOSITIONS COMPRISING THEM AND USES THEREOF” (University de Montreal, priority 2022, published 2026).
